From paper PMC10033419, “Blocking NS3–NS4B interaction inhibits dengue virus in non-human primates” (Nature, 2023)
Several values for one entry are separate records, joined by “and”; a condition that tells them apart may be missing. Equal values may be shown once. Read-outs that look alike come from different tables or passages of the source.

Experiments:
[1] = test system: DENV-1 G4 Indonesia; experiment: DENV genotype panel RT-qPCR, Vero E6; type: cell-based; conditions: Dengue virus, DENV1, Vero C1008
Experimental: (§1) A total of 20 DENV strains, representing the available genotypes within the four DENV serotypes, were used in the in vitro genotype panel, from which 19 viruses were described previously in ref. [3] and one additional virus, DENV-1/45AZ5 (ref. [54]), was added.
(§2) A potential toxic effect on host cells was tested in parallel, while omitting virus infection, using the MTS/PMS method (Promega) for Vero cells, or by high-content imaging for C6/36 cells, as described previously. […] RT–qPCR data were analysed using the QuantStudio 12K Flex software (v.1.2.3) or SDS v.1.2 Applied Biosystems software. Inhibition values for antiviral molecules were plotted using KaleidaGraph plotting software (v.4.03, Synergy Software).

[2] = test system: DENV-2 American Trinidad; experiment: DENV genotype panel RT-qPCR, Vero E6; type: cell-based; conditions: Dengue virus, DENV2, Vero C1008
Experimental: as §1, §2

[3] = test system: DENV-3 G1 Malaysia; experiment: DENV genotype panel RT-qPCR, Vero E6; type: cell-based; conditions: Dengue virus, DENV3, Vero C1008
Experimental: as §1, §2

[4] = test system: DENV-4 G2a Malaysia; experiment: DENV genotype panel RT-qPCR, Vero E6; type: cell-based; conditions: Dengue virus, DENV4, Vero C1008
Experimental: as §1, §2

[5] = test system: DENV-4 G2b Brazil; experiment: DENV genotype panel RT-qPCR, Vero E6; type: cell-based; conditions: Dengue virus, DENV4, Vero C1008
Experimental: as §1, §2

[6] = test system: DENV-4 G3 Thailand; experiment: DENV genotype panel RT-qPCR, Vero E6; type: cell-based; conditions: Dengue virus, DENV4, Vero C1008
Experimental: as §1, §2

[7] = test system: DENV-4 Sylvatic Malaysia; experiment: DENV genotype panel RT-qPCR, Vero E6; type: cell-based; conditions: Dengue virus, DENV4, Vero C1008
Experimental: as §1, §2

[8] = test system: DENV-1 G4 45AZ5; experiment: DENV-1/45AZ5 antiviral assay RT-qPCR; type: cell-based
Experimental: as §1, §2

[9] = test system: DENV-1/West Pac; experiment: Viraemia/survival study; type: in vivo, AG129 mice; conditions: for Viral RNA copies/mL [Log10]: Fig. 2i Viraemia DENV-1, BID, individual animals 1-5, LOD is 1.7
Experimental: (§3) The UTMB is an Association for the Assessment and Accreditation of Laboratory and Care (AAALAC) International accredited facility. All of the procedures were reviewed and approved by the UTMB Institutional Animal Care and Use Committee. […] Male and female AG129 mice (n = 10 per group; aged 6–8 weeks) were housed at a maximum of 5 mice per cage in individually ventilated cages with food and water provided ad libitum. Allocation to experimental groups was performed randomly. […] Approximately 1 h after the first treatment, all of the animals were challenged by i.p. injection with 10^7 PFU DENV-1/West Pac, DENV-3/C0360/94 or DENV-4/703/4. Pretreatment with anti-flavivirus antibody 4G2 to increase disease severity by induction of ADE was not required as infection with DENV-1/West Pac, DENV-3/C0360/94 or DENV-4/703/4 in our models leads to severe disease (requiring euthanasia after >20% loss of body weight). Each treatment group was subdivided into two smaller groups (groups A and B; n = 5 each). Blood was collected on day 3 after infection from group A to measure viral RNA; samples were collected by retro-orbital bleed on day 3 after infection around 30 min before the morning treatment. In parallel, animals (groups A and B) were followed for lethality throughout the experiment. Viral RNA isolation from plasma and RT–qPCR analysis was performed using the methods described previously.
(§4) For the viral kinetics studies and the delayed-treatment studies, a batch approach was applied to calculate the viral load AUC using the PΚ R package. This package estimates a mean AUC value for settings in which the animals are measured at varying timepoints within a treatment group. […] The AUC was calculated using the LOD (2.6 log10 copies per ml) as the lowest limit. […] In the delayed-treatment studies, the total viral load AUC for each of the compound-treated groups was calculated and compared with that of the vehicle-treated group. […] P values were adjusted using the Bonferroni multiple-comparison correction method. Note that P values lower than 0.0001 were rounded to 0.0001. For survival studies of DENV-1-, DENV-3- or DENV-4-infected mice, Fisher’s exact tests were used on day 6. P values were adjusted using the Bonferroni multiple-comparison correction method.

[10] = test system: DENV-3/C0360/94; experiment: Viraemia/survival study; type: in vivo, AG129 mice; conditions: for Viral RNA copies/mL [Log10]: Fig. 2j Viraemia DENV-3, BID, individual animals 1-5, LOD is 1.7
Experimental: as §3, §4

[11] = test system: DENV-4/703/4; experiment: Viraemia/survival study; type: in vivo, AG129 mice; conditions: for Viral RNA copies/mL [Log10]: Fig. 2k Viraemia DENV-4, BID, individual animals 1-5, LOD is 1.7
Experimental: as §3, §4

[12] = test system: DENV-2/16681; experiment: NHP DENV-2 study, NS1 ELISA in serum; parameters: species or system rhesus macaques (M. mulatta); conditions: rhesus monkey, in vivo
[13] = 60 or 6 mg per kg per day b.i.d.
[14] = 60 or 6 mg per kg per day b.i.d., vehicle 0%

COc1cc(N[C@H](C(=O)c2c[nH]c3ccc(OC(F)(F)F)cc23)c2ccc(Cl)cc2OC)cc(S(C)(=O)=O)c1 [JNJ-1802]
EC90 [1]: 0.8 ± 0.31 nM | EC50 ([1]; two of four values below threshold): < 0.19 nM | EC50 [2]: 0.063 ± 0.081 nM | EC90 [2]: 0.162 ± 0.083 nM | EC50 [3]: 1.28 ± 0.46 nM | EC90 [3]: 3.6 ± 1.9 nM | EC50 [4]: 0.82 ± 0.71 nM | EC90 [4]: 2.1 ± 1.7 nM | EC50 [5]: 0.521 ± 0.08 nM | EC90 [5]: 1.54 ± 0.15 nM | EC50 [6]: 45 nM | EC90 [6]: 46 ± 12 nM | EC50 [7]: 0.66 ± 0.42 nM | EC90 [7]: 1.6 ± 1.1 nM | EC50 ([8]; DENV-qPCR-VeroECACC-deltaCt-DENV-1/45AZ5_pre-seeding, single experiments (EXPERIMENT_ID), listed as 64281802-AAA, read-out: EC50 (µM) result_value, DENV-1/45AZ5): 0.0016 µM | EC90 ([8]; Dengue virus, DENV1): 4.18 ± 0.71 nM | EC50 ([8]; Dengue virus, DENV1, DENV-qPCR-VeroECACC-deltaCt-DENV-1/45AZ5_pre-seeding, mean of 6 results, read-out: EC50 (µM) Mean, DENV-1/45AZ5): 0.00152 µM | EC50 ([8]; Dengue virus, DENV1, DENV-qPCR-VeroECACC-deltaCt-DENV-1/45AZ5_pre-seeding, single experiments (EXPERIMENT_ID), read-out: EC50 (µM) result_value, DENV-1/45AZ5): 0.0015 µM | viral RNA load day 3 vs vehicle [9, 13]: significantly reduced | survival until day 6 ([9]; 60 or 6 mg per kg per day b.i.d., vehicle 20%): 100% | Survival [%] ([9]; DENV-1, 6 mg/kg/day BID, day 0 post-infection): 100% | Survival [%] ([9]; DENV-1, 6 mg/kg/day BID, day 1 post-infection): 100% | Survival [%] ([9]; DENV-1, 6 mg/kg/day BID, day 2 post-infection): 100% | Survival [%] ([9]; DENV-1, 6 mg/kg/day BID, day 3 post-infection): 100% | Survival [%] ([9]; DENV-1, 6 mg/kg/day BID, day 4 post-infection): 100% | Survival [%] ([9]; DENV-1, 6 mg/kg/day BID, day 5 post-infection): 100% | Survival [%] ([9]; DENV-1, 6 mg/kg/day BID, day 6 post-infection): 100% | Survival [%] ([9]; DENV-1, 60 mg/kg/day BID, day 0 post-infection): 100% | Survival [%] ([9]; DENV-1, 60 mg/kg/day BID, day 1 post-infection): 100% | Survival [%] ([9]; DENV-1, 60 mg/kg/day BID, day 2 post-infection): 100% | Survival [%] ([9]; DENV-1, 60 mg/kg/day BID, day 3 post-infection): 100% | Survival [%] ([9]; DENV-1, 60 mg/kg/day BID, day 4 post-infection): 100% | Survival [%] ([9]; DENV-1, 60 mg/kg/day BID, day 5 post-infection): 100% | Survival [%] ([9]; DENV-1, 60 mg/kg/day BID, day 6 post-infection): 100% | Viral RNA copies/mL [Log10] ([9]; 6 mg/kg/day): 6.011 copies/mL [Log10] and 6.0187 copies/mL [Log10] and 7.037 copies/mL [Log10] and 6.709 copies/mL [Log10] and 6.244 copies/mL [Log10] | Viral RNA copies/mL [Log10] ([9]; 60 mg/kg/day): 4.624 copies/mL [Log10] and 4.061 copies/mL [Log10] and 4.479 copies/mL [Log10] and 4.465 copies/mL [Log10] and 4.103 copies/mL [Log10] | viral RNA load day 3 vs vehicle [10, 13]: significantly reduced | survival until day 6 [10, 14]: 100% | Survival [%] ([10]; DENV-3, 6 mg/kg/day BID, day 0 post-infection): 100% | Survival [%] ([10]; DENV-3, 6 mg/kg/day BID, day 1 post-infection): 100% | Survival [%] ([10]; DENV-3, 6 mg/kg/day BID, day 2 post-infection): 100% | Survival [%] ([10]; DENV-3, 6 mg/kg/day BID, day 3 post-infection): 100% | Survival [%] ([10]; DENV-3, 6 mg/kg/day BID, day 4 post-infection): 100% | Survival [%] ([10]; DENV-3, 6 mg/kg/day BID, day 5 post-infection): 100% | Survival [%] ([10]; DENV-3, 6 mg/kg/day BID, day 6 post-infection): 100% | Survival [%] ([10]; DENV-3, 60 mg/kg/day BID, day 0 post-infection): 100% | Survival [%] ([10]; DENV-3, 60 mg/kg/day BID, day 1 post-infection): 100% | Survival [%] ([10]; DENV-3, 60 mg/kg/day BID, day 2 post-infection): 100% | Survival [%] ([10]; DENV-3, 60 mg/kg/day BID, day 3 post-infection): 100% | Survival [%] ([10]; DENV-3, 60 mg/kg/day BID, day 4 post-infection): 100% | Survival [%] ([10]; DENV-3, 60 mg/kg/day BID, day 5 post-infection): 100% | Survival [%] ([10]; DENV-3, 60 mg/kg/day BID, day 6 post-infection): 100% | Viral RNA copies/mL [Log10] ([10]; 6 mg/kg/day): 1.7 copies/mL [Log10] and 2.037 copies/mL [Log10] and 2.373 copies/mL [Log10] | Viral RNA copies/mL [Log10] ([10]; 60 mg/kg/day): 1.7 copies/mL [Log10] | viral RNA load day 3 vs vehicle [11, 13]: significantly reduced | survival until day 6 [11, 14]: 100% | Survival [%] ([11]; DENV-4, 6 mg/kg/day BID, day 0 post-infection): 100% | Survival [%] ([11]; DENV-4, 6 mg/kg/day BID, day 1 post-infection): 100% | Survival [%] ([11]; DENV-4, 6 mg/kg/day BID, day 2 post-infection): 100% | Survival [%] ([11]; DENV-4, 6 mg/kg/day BID, day 3 post-infection): 100% | Survival [%] ([11]; DENV-4, 6 mg/kg/day BID, day 4 post-infection): 100% | Survival [%] ([11]; DENV-4, 6 mg/kg/day BID, day 5 post-infection): 100% | Survival [%] ([11]; DENV-4, 6 mg/kg/day BID, day 6 post-infection): 100% | Survival [%] ([11]; DENV-4, 60 mg/kg/day BID, day 0 post-infection): 100% | Survival [%] ([11]; DENV-4, 60 mg/kg/day BID, day 1 post-infection): 100% | Survival [%] ([11]; DENV-4, 60 mg/kg/day BID, day 2 post-infection): 100% | Survival [%] ([11]; DENV-4, 60 mg/kg/day BID, day 3 post-infection): 100% | Survival [%] ([11]; DENV-4, 60 mg/kg/day BID, day 4 post-infection): 100% | Survival [%] ([11]; DENV-4, 60 mg/kg/day BID, day 5 post-infection): 100% | Survival [%] ([11]; DENV-4, 60 mg/kg/day BID, day 6 post-infection): 100% | Viral RNA copies/mL [Log10] ([11]; 6 mg/kg/day): 1.7 copies/mL [Log10] and 4.048 copies/mL [Log10] and 3.88 copies/mL [Log10] | Viral RNA copies/mL [Log10] ([11]; 60 mg/kg/day): 1.7 copies/mL [Log10] | NS1 protein in serum [12]: positive NS1 signal
